In this test the target is monoamine oxidase (MAO), isoform not stated. The test can be described thus: MAO inhibition assay (procedure cited to earlier paper; enzyme source not given). Type of test: biochemical.

With `O=CN/C=C\c1ccc(O)cc1` [compound 11, (Z)-N-(4-hydroxystyryl)formamide], the concentration for half-maximal inhibition (IC50) turned out to be 61 µM.
